Measured values taken from ChEMBL document CHEMBL1201862, “PubChem BioAssay data set” (2004).
The source made the active and inactive calls.

Tests used:
[1] = biological target: Peroxisome proliferator-activated receptor gamma/Nuclear receptor coactivator 3 (Homo sapiens, UniProt P37231); experiment: TR-FRET dose response biochemical High Throughput Screening assay for agonists of the steroid receptor coactivator 3 (SRC-3) recruitment by the peroxisome proliferator-activated receptor gamma (PPAR gamma): non-selective agonists. [Related pubchem assays: 1301 (Confirmation screen.), 1048 (Primary screen.)]; type: functional
[2] = biological target: Photoreceptor-specific nuclear receptor (Homo sapiens, UniProt Q9Y5X4); type: functional, cell-based;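 further: CHO-S cells with Gal4-NCOR and VP16-NR2E3 two-hybrid luciferase reporter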
[3] = biological target: Peroxisome proliferator-activated receptor gamma/Nuclear receptor coactivator 2 (Homo sapiens, UniProt P37231); experiment: (§1) TR-FRET dose response biochemical High Throughput Screening assay for agonists of the steroid receptor coactivator 2 (SRC-2) recruitment by the peroxisome proliferator-activated receptor gamma (PPAR gamma): non-selective agonists. [Related pubchem assays: 1297, 1032 ]; type: functional
[4] = biological target: SWI/SNF-related matrix-associated actin-dependent regulator of chromatin subfamily A member 2 (Homo sapiens, UniProt P51531); experiment: Luminescence-based cell-based high throughput dose response assay to identify activators of the function of SWI/SNF related, matrix associated, actin dependent regulator of chromatin, subfamily a, member 2 (SMARCA2, BRM).; type: functional
[5] = Counterscreen for activators of the function of SWI/SNF related, matrix associated, actin dependent regulator of chromatin, subfamily a, member 2 (SMARCA2, BRM): Luminescence-based cell-based high throughput dose response assay to identify non-selective compounds using the VP16 reporter assay.; type: functional
[6] = biological target: Peroxisome proliferator-activated receptor gamma/Nuclear receptor coactivator 1 (Homo sapiens, UniProt P37231); experiment: as §1, with “1 (SRC-1)” for “2 (SRC-2)”, “assays (depositor defined):AID1300, AID1808, AID504735, AID631]” for “assays: 1297, 1032 ]”; type: protein assay
[7] = NIH:OVCAR-3 ovarian cancer cell cytotoxicity, dose response, PAX8 inhibitor project, plate reader, dry powder samples (AID 743044); type: functional, cell-based
[8] = cytotoxicity in COV434 cells, dose response, cytotoxicity control for PAX8 inhibitor project, cell-based, plate reader, dry powder, SA7 (AID 743145); type: functional
[9] = PAX2 cell-based inhibition, dose response, selectivity assay for PAX8 inhibitor project, plate reader, dry powder samples (AID 743048); type: functional;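 further: HEK293 cells carrying a WT1 promoter luciferase reporter driven by expressed Pax2; potency is for inhibition of Pax2 driven reporter signal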
[10] = cytotoxicity dependent on PAX8, dose response, cell-based, plate reader, dry powder (AID 743049); type: functional
[11] = cytotoxicity in OV-90 ovarian cancer cells, dose response, PAX8 inhibitor project, cell-based, plate reader, dry powder, SA8 (AID 743149); type: functional
[12] = IGROV1 ovarian cancer cell cytotoxicity, dose response, PAX8 inhibitor project, plate reader, dry powder samples (AID 743043); type: functional, cell-based; conditions: IGROV-1
[13] = biological target: Major prion protein (Homo sapiens, UniProt P04156); type: functional, cell-based
[14] = cells
[15] = biological target: T1, Caspase-6 (Homo sapiens, UniProt P55212); experiment: human caspase-6 inhibitors, dose response, biochemical, VEID-R110 fluorescence, dry powder retest (AID 743332)
T1 sequence (P55212 whole entry): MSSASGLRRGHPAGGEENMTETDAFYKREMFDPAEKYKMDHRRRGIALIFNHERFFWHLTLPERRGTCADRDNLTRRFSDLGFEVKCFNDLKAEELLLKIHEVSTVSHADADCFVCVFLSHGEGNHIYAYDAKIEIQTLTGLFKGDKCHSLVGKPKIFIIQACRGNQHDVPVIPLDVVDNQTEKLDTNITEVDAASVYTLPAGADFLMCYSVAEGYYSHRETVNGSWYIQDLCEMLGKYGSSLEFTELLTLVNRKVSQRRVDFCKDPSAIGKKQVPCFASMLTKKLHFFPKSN

[16] = biological target: Disintegrin and metalloproteinase domain-containing protein 17 (Homo sapiens, UniProt P78536); experiment: ADAM17 protease inhibitors, dose response, counter-screen for ADAM10 exosite inhibitor project, biochemical, quenched FRET substrate (AID 743253)
[17] = cytotoxicity toward NIH3T3 fibroblasts, dose response, counter-screen, cell-based, ATP luminescence, mouse fibroblasts (AID 2010); type: functional;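 further: cells exposed to compound for about 90 hours before reading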
[18] = inhibitors of intracellular T. cruzi replication, confirmation, NIH3T3 host cells, beta-gal luminescence (AID 2044); type: functional, cell-based;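 further: intracellular parasites grown in NIH/3T3 mouse fibroblasts as host cells; luminescent beta-galactosidase reporter signal from transgenic T. cruzi replicating inside host cells; inhibitors lower the luminescence signal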
[19] = ADAM10 inhibitors, peptide cleavage, dose response, biochemical, QFRET (AID 743254);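 further: ADAM10 enzyme with the DM2 quenched FRET peptide as substrate; EDANS fluorescence gain as the protease cuts the substrate; inhibitor potency against ADAM10 proteolytic activity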
[20] = biological target: Paired box protein Pax-8 (Homo sapiens, UniProt Q06710); experiment: inhibitors of PAX8-driven TPO luciferase reporter, dose response, RMG-I cells, cherry-pick (AID 687027); type: functional, cell-based;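 further: luciferase reporter driven by Pax8 target thyroperoxidase promoter measured by SteadyGlo luminescence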
[21] = inhibitors of CMV-promoter luciferase reporter, dose response, counter-screen for Pax8 inhibitor project, cell-based, HEK293, luminescence, dry powder (AID 743020); type: functional
[22] = biological target: Fructose-bisphosphate aldolase (Mycobacterium tuberculosis, UniProt P9WQA3); experiment: Fluorescence-based biochemical high throughput dose response assay for inhibitors of the fructose-bisphosphate aldolase (FBA) of M. tuberculosis.; type: functional
[23] = biological target: fMet-Leu-Phe receptor (Homo sapiens, UniProt P21462); experiment: FPR ligands, dose response (AID 519); type: functional
[24] = HepG2 cell cytotoxicity, dose response, cytotoxicity control, ATP luminescence, cherry-pick, activator set 2 (AID 1053143); type: functional, cell-based
[25] = biological target: Albumin (Bos taurus, UniProt P02769); experiment: Counterscreen for inhibitors of T-cell receptor (TCR)-CD3 interaction: Fluorescence-based biochemical high throughput dose response assay to identify inhibitors of T-cell receptor (TCR)-CD3 interaction using a TAMRA-labeled BSA probe.; type: functional

CCn1c(=O)cc(SCC(=O)Nc2ccc(C)cn2)c2ccccc21
EC50 [1]: > 79.4 µM (not active)
IC50 [2]: 0.469 µM (active)
EC50 [3]: > 79.4 µM (not active)
EC50 [4]: > 91.2 µM (inactive)
EC50 [5]: > 91.2 µM (inactive)
EC50 [6]: > 79.4 µM (inactive)

CN(C)CCCN(C(=O)CCOc1ccccc1)c1nc2c(F)cccc2s1
AC50 [7]: 44.9 µM (active)
AC50 [8]: 22.8 µM (active)
AC50 [9]: > 100 µM (inactive)
AC50 [10]: 10.8 µM (active)
AC50 [11]: 13.1 µM (active)
AC50 [12]: 44.1 µM (active)

CN(C)S(=O)(=O)c1ccc(NC(=O)CSc2ncnc3ccccc23)cc1
IC50 [13]: 16.5 µM (inactive)
IC50 [14]: > 138 µM (inactive)

N#Cc1ccc(C(=O)N2CCN(S(=O)(=O)c3ccccc3)CC2)cc1
AC50 [15]: > 70 µM (inactive)

S=C(Nc1ccc(Nc2ccccc2)cc1)NC1CCCCCC1
IC50 [16]: > 69.5 µM (inactive)
EC50 [17]: 29 µM (active)
EC50 [18]: 2.21 µM (active)
IC50 [19]: > 7.72 µM (active)

C[C@@H]1CCCCO[C@H](CN(C)Cc2ccc(Cl)c(Cl)c2)[C@@H](C)CN([C@@H](C)CO)C(=O)c2cc(NC(=O)Nc3ccccc3)ccc2O1
AC50 [20]: 4.29 µM (active)
AC50 [21]: 47.9 µM (active)

CCOC(=O)N1CCc2cc(OC)c(OC)c3c2c1cc1cc(OC)c(OC)cc13
IC50 [22]: 2.7 µM (active)

COc1cc(C2C(C(=O)c3ccco3)=C(O)C(=O)N2CCc2ccccc2)ccc1O (stereo not given)
Ki [23]: > 66.7 µM (inactive)

Cc1cc(NC(=O)c2ccco2)sc1C
AC50 [24]: 26 µM (active)

CC(C)(C)c1ccc(C(=O)NCC(=O)NNC(=O)c2ccccc2O)cc1
IC50 [25]: > 94.1 µM (inactive)
